From patent US8816089B2, “Methods for controlling SR protein phosphorylation, and antiviral agents whose active ingredients comprise agents that control SR protein activity” (priority 2003, dated 2014)
Like-named read-outs stand apart in the source and are kept apart here. Peptide text beside a SMILES is read from it. * marks the point of attachment. Cbz = O=C(OCc1ccccc1)*

Legend:
[1] = tested on: Chinese hamster CHL cells; assay: Chromosomal screening test for mutagenicity in mammalian cells
SARS virus (FFM-1) = assay type: cell-based; settings: for SARS virus propagation (plaque assay): 40 μM, 48 hours
Cytomegalovirus = settings: HFL1 cells; for morphological changes and cell death caused by cytomegalovirus infection: seven days after infection
SRPK1 or SRPK2 = assay: Inhibition of SRPK1 or SRPK2 phosphorylation activity by SRPIN-1 analogs (FIG. 5A); assay type: biochemical; settings: 10 μM in DMSO, 30° C., 20 minutes
Description: FIG. 5A: Evaluation of the SRPK-inhibiting activities of SRPIN-1 and analogs thereof.
The same procedure as described in Example 4B was used to determine whether SRPIN-1 analogs had the activity of inhibiting the phosphorylation activity of SRPK1 and SRPK2. Each SRPIN-1 analog (10 μM; in DMSO) was incubated with 1 μg of purified recombinant SRPK1 or SRPK2 protein, which was expressed in E. coli, in a reaction buffer (400 μM HEPES (pH 7.5), 100 μM MgCl2, 200 μM ATP, […] [γ-^32P] ATP, and 1 mg/ml RS peptide (SEQ ID NO: 5)) in a 30° C. water bath for 20 minutes.
After RS peptide was incubated with SRPK1 or SRPK2 for 20 minutes, the reaction solution was dropped onto P81 phosphocellulose membrane (P81; Whatman) and the membrane was washed three times for ten minutes with 5% phosphoric acid solution. After washing, ^32P radioactivity on the P81 membrane was determined using a liquid scintillation counter.

HIV = HIV infection experiment in MT-4 cells, HIVp24 by Lumipulse ELISA; settings: supernatant after 48 hours; for effect in suppressing HIV replication (HIVp24): MT-4 cells, 5, 10, or 20 μM
SRp75, SRp55, and SRp40 = assay: Degradation of HA-tagged SR proteins in Flp-In-293 cells, Western blot; assay type: cell-based, human; settings: 10 μM, ten hours
Description: FIG. 1B: Degradation of SR protein. Plasmids for the SRp75, SRp55, and SRp40 genes were fused with HA tag and introduced into Flp-In-293 cells. MG132 (474790; purchased from CALBIOCHEM) was added to the cells at a final concentration of 10 μM. The cells were lysed and heat-denatured. The resulting protein sample was separated by SDS-PAGE, followed by Western analysis using a rabbit anti-HA antibody as the primary antibody and a donkey anti-rabbit IgG antibody as the secondary antibody.
Using Genejuice, 1 μg each of the plasmids for the SRp75, SRp55, and SRp40 genes fused with HA tag (HA-SRp75, HA-SRp55, and HA-SRp40; gifts from Dr. Woan-Yuh TARN), were introduced into Flp-In-293 cells derived from human fetal kidney. After 36 hours, MG132 (474790; purchased from Calbiochem), a ubiquitin proteasome inhibitor, was added at a final concentration of 10 μM. After ten hours, the cells were lysed with SDS-PAGE sample buffer and heat-denatured. The resulting lysate was used as a protein sample. Using the same procedures as described above, the sample was fractionated by SDS-PAGE, and analyzed by Western blotting using a rabbit anti-HA antibody (H1803; purchased from Santa Cruz) as a primary antibody and a donkey anti-rabbit IgG antibody (NA9340; purchased from Amersham) as a secondary antibody.

SRPK1 = target: T1, SRPK1 (Homo sapiens, UniProt Q96SB4); assay: SRPK1 phosphorylation activity assay with RS peptide and [γ-32P]ATP; assay type: biochemical
T1 construct: made in house; host or cells: E. coli

SRPK2 = SRPK2 (Homo sapiens, UniProt P78362); assay: Kinase phosphorylation assay, same technique as for SRPK1; assay type: biochemical; settings: final concentration of 10 μM
PRP4 = PRP4 (Homo sapiens, UniProt Q13523); assay: as above; assay type: biochemical; settings: final concentration of 10 μM
PKC = assay: as above; assay type: biochemical; settings: final concentration of 10 μM
SRp75 protein = assay: In vivo inhibition of SR protein phosphorylation and induction of SR protein degradation, Western blot of HA-SRp75; assay type: cell-based, human; settings: Flp-In-293 cells, SRPIN-1 10, 20, or 50 μM with MG132 10 μM, 15 hours
Description: FIG. 4C: Evaluation of in-vivo inhibition of SR protein phosphorylation using SRPIN-1, and evaluation of the induction of the accompanying SR protein degradation. HA-SRp75 plasmid was introduced into Flp-In293 cells. After 36 hours, MG132 (final concentration: 10 μM) and SRPIN-1 (10, 20, or 50 μM) were added to the cells. The cells were incubated for 15 hours and then lysed. After SDS-PAGE, the samples were analyzed by Western blotting using anti-HA antibody. Western analysis was also carried out using an antibody against beta actin as a control protein amount.
HA-SRp75 plasmid (1.0 μg) was introduced into Flp-In-293 cells. After 36 hours, MG132 (final concentration: 10 μM) and SRPIN-1 (10, 20, or 50 μM) were added, and the cells were incubated for 15 hours. Then, the cells were lysed with SDS-PAGE sample buffer. The lysate was used as a protein sample. The sample was fractionated by SDS-PAGE and analyzed by Western blotting using the anti-HA antibody. In addition, as a control for protein amount, Western analysis was carried out using anti-beta actin antibody.

sindbis virus = assay type: cell-based
Slc:SD rats = assay: Single-dose oral administration toxicity test
Description: The toxicity of SRPIN-1 was tested by single-dose oral administration to rats. SRPIN-1 was orally administered at a dose of 125, 250, 500, 1000, or 2000 mg/kg (in a volume of 10 ml per kg) to Slc:SD rats (five weeks old; Japan SLC, Inc.) whose weight gain and general conditions were normal during the acclimatization period. Each group included two males and two females. The animals were fasted from the evening of the day before administration until about four hours after administration. […] Then, SRPIN-1 was likewise orally administered at a dose of 2000 mg/kg to five male and five female Slc:SD rats (five weeks old).

PKA = settings: final concentration of 10 μM

T1 sequence (Q96SB4 whole entry, species assumed): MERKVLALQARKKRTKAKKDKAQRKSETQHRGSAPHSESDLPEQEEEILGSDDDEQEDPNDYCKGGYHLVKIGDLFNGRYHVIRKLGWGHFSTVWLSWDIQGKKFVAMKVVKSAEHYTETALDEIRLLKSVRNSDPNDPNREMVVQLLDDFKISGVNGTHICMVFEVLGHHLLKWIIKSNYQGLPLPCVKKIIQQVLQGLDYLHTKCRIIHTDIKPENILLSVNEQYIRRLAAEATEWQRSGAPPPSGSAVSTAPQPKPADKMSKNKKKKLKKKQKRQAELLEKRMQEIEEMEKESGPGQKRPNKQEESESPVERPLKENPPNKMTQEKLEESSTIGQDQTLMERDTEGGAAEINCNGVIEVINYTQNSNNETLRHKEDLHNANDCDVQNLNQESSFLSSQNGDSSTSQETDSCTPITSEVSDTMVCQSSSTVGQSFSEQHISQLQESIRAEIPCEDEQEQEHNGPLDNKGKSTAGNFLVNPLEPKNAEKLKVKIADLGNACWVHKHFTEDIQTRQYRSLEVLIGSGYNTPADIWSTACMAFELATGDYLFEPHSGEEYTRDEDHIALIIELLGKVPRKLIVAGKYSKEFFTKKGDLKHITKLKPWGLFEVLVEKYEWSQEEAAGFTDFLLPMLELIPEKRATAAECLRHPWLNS
SRPK2, sequence (P78362 whole entry, species assumed): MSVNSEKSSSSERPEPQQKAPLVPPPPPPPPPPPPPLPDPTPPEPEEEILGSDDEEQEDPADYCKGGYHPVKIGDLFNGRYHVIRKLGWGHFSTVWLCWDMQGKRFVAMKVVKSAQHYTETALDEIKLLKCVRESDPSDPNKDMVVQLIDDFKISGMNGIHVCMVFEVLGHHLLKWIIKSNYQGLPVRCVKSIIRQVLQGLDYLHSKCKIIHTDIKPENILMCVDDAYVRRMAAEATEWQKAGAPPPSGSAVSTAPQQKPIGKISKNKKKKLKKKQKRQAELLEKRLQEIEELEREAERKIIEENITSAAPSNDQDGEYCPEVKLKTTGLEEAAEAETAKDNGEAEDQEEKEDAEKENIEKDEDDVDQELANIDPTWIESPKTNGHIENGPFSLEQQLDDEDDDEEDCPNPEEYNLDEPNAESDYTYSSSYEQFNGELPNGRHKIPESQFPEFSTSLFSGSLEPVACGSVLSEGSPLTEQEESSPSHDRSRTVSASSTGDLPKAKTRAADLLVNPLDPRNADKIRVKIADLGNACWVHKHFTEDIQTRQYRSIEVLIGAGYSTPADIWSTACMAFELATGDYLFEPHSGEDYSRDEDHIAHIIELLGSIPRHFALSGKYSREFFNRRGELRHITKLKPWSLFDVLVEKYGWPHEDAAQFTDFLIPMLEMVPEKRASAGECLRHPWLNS
PRP4, sequence (Q13523 whole entry): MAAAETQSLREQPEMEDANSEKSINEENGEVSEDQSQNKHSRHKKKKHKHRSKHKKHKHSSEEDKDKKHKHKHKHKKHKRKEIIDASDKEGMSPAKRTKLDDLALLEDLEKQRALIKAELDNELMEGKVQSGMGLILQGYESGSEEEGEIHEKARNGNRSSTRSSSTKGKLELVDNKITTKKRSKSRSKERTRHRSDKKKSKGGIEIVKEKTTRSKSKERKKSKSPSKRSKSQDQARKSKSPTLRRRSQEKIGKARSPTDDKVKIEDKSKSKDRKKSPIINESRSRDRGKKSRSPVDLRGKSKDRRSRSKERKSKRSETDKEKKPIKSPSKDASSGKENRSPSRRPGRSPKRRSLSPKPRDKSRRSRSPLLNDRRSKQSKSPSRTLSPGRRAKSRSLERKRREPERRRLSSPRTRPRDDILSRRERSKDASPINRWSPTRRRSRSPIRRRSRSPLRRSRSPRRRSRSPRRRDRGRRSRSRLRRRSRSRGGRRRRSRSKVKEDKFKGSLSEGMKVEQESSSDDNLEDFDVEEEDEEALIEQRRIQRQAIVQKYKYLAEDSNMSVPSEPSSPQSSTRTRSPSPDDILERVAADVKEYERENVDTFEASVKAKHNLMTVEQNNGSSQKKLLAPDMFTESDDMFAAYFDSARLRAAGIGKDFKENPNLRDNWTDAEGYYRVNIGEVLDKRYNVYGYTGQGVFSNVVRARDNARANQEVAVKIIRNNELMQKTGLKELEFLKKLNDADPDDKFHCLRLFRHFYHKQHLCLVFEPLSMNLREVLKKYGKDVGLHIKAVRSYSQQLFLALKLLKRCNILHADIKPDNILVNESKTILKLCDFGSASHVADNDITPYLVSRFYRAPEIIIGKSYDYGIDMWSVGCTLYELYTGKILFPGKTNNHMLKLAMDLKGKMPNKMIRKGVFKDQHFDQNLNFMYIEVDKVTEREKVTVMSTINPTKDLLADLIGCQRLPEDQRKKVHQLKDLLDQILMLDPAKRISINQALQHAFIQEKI

Compound: CN(C)N=O [DMN, dimethylnitrosamine, reference compound]
- frequency of occurrence of cells with chromosomal abnormalities ([1]; positive control, 500 μg/ml, short treatment, +S9 mix): 52.0%
- frequency of occurrence of cells with chromosomal abnormalities (number of cells) ([1]; positive control, 500 μg/ml, short treatment, +S9 mix, 50 metaphasic cells): 26 cells

Compound: O=C(Nc1ccccc1N1CCCCC1)c1ccncc1 [Compound No. 349, N-[2-(1-piperidinyl)phenyl]isonicotinamide]
- SARS virus propagation (plaque assay) (SARS virus (FFM-1); Vero cells): significantly suppressed SARS virus propagation
- morphological changes and cell death caused by cytomegalovirus infection (Cytomegalovirus; 20 or 40 μM): suppressed the abnormal morphological changes and cell death caused by cytomegalovirus infection

Compound: COc1ccc(C(=O)Nc2cc(C(F)(F)F)ccc2N2CCCCC2)cc1 [compound 615, N-[2-(1-piperidinyl)-5-(trifluoromethyl)phenyl]-4-methoxybenzamide]
- inhibitory effect on the phosphorylation activity of SRPK1 and/or SRPK2 (SRPK1 or SRPK2): strong inhibitory effect
- effect in suppressing HIV replication (HIVp24) (HIV): strong effects in suppressing HIV propagation

Compound: CC(C)C[C@@H](C=O)NC(=O)[C@H](CC(C)C)NC(=O)[C@H](CC(C)C)NC(=O)OCc1ccccc1 [MG132] (Cbz-Leu-Leu-Leu-aldehyde)
- degradation of SR proteins (anti-HA signal) (SRp75, SRp55, and SRp40): inhibited degradation of SR75, SR55, and SR40 proteins

Compound: C[C@H]1CCCCN1c1ccc(C(F)(F)F)cc1NC(=O)c1ccncc1 [compound 613, (S)—N-[2-(2-methyl-1-piperidinyl)-5-(trifluoromethyl)phenyl]isonicotinamide]
- inhibitory effect on the phosphorylation activity of SRPK1 and/or SRPK2 (SRPK1 or SRPK2): strong inhibitory effect
- effect in suppressing HIV replication (HIVp24) (HIV): strong effects in suppressing HIV propagation

Compound: O=C(Nc1cc(C(F)(F)F)ccc1N1CCc2ccccc21)c1ccncc1 [compound 619, N-[2-(1-indolinyl)-5-(trifluoromethyl)phenyl]isonicotinamide]
- inhibitory effect on the phosphorylation activity of SRPK1 and/or SRPK2 (SRPK1 or SRPK2): strong inhibitory effect
- effect in suppressing HIV replication (HIVp24) (HIV): strong effects in suppressing HIV propagation

Compound: O=C(Nc1cc(C(F)(F)F)ccc1N1CCCCCC1)c1ccncc1 [compound 618, N-[2-(1-hexahydro-1H-azepinyl)-5-(trifluoromethyl)phenyl]isonicotinamide]
- inhibitory effect on the phosphorylation activity of SRPK1 and/or SRPK2 (SRPK1 or SRPK2): strong inhibitory effect
- effect in suppressing HIV replication (HIVp24) (HIV): strong effects in suppressing HIV propagation

Compound: O=C(Nc1cc(C(F)(F)F)ccc1N1CCCCC1)c1ccncc1 [Compound No. 340, N-[2-(1-piperidinyl)-5-(trifluoromethyl)phenyl]isonicotinamide]
- IC50 (SRPK1): ~400 nM
- inhibitory effect on SRPK2 (SRPK2): did not exhibit an inhibitory effect
- inhibitory effect on PRP4 (PRP4): did not exhibit an inhibitory effect
- inhibitory effect on PKC (PKC): did not exhibit an inhibitory effect
- HA antibody signal (HA-SRp75) (SRp75 protein): weakened depending on the concentration of SRPIN-1
- cell damage caused by sindbis virus propagation (sindbis virus): dramatically suppressed
- propagation of sindbis virus (plaque assay) (sindbis virus): significantly suppressed the propagation of sindbis virus in a concentration-dependent manner
- SARS virus propagation, concentration dependence (plaque assay) (SARS virus (FFM-1)): suppress SARS virus propagation in a concentration-dependent manner
- SARS virus propagation (plaque assay) (SARS virus (FFM-1); Vero cells): significantly suppressed SARS virus propagation
- viral propagation-suppressing effect compared with Compound No. 349 (SARS virus (FFM-1); Vero cells, SARS virus): stronger than that of the analog compound (Compound No. 349)
- death (Slc:SD rats; oral 2000 mg/kg, observed for 14 days): none of the male and female rats died
- death (Slc:SD rats; oral 125, 250, 500, 1000, or 2000 mg/kg, two days after administration): None of the male and female rats died
- general condition (Slc:SD rats; rat, in vivo, po, 2000 mg/kg): no abnormalities were detectable in their general condition
- inhibitory effect on PKA (PKA): did not exhibit an inhibitory effect
- morphological changes and cell death caused by cytomegalovirus infection (Cytomegalovirus; 20 μM): neither abnormal morphological changes nor cell death were detectable
- morphological changes induced by the compound (Cytomegalovirus; 40 μM): Partial morphological changes thought to be induced by SRPIN-1 were detectable
- increase in the number of cells with structural and numerical chromosomal abnormalities ([1]; continuous treatment method (24 hours), 5, 1.58, or 0.5 mg/ml): negative (When the frequency of cell abnormality was less than 5%, the testing substance was judged to be negative)
- increase in the number of cells with structural and numerical chromosomal abnormalities ([1]; short treatment method (+S9 mix, six hours), 5, 1.58, or 0.5 mg/ml): negative (When the frequency of cell abnormality was less than 5%, the testing substance was judged to be negative)
- effect in suppressing HIV replication (HIVp24) (HIV): strong effects in suppressing HIV propagation
- amount of HIVp24 (HIV; MT-4 cells, SRPIN-1 0.5, 10, or 20 μM): decreased in an SRPIN-1 concentration-dependent manner
